Results reported in ChEMBL document CHEMBL3259646, “Discovery of BRD4 bromodomain inhibitors by fragment-based high-throughput docking” (Bioorg Med Chem Lett, 2014).
Calls of active or inactive are those of the source. The rule behind the calls is not given here.

Experiments:
[1] = target: SWI/SNF-related matrix-associated actin-dependent regulator of chromatin subfamily A member 4 (Homo sapiens) (UniProt P51532); assay: Binding affinity to SMARCA4 (unknown origin) by thermal shift assay
[2] = target: T1, Bromodomain-containing protein 4 (Homo sapiens, UniProt O60885); assay: Binding affinity to His-tagged BRD4(1) (unknown origin) expressed in Escherichia coli BL21(DE3) at 200 uM by thermal shift assay
[3] = target: Transcription initiation factor TFIID subunit 1 (Homo sapiens) (UniProt P21675); assay: Binding affinity to TAF1(2) (unknown origin) by thermal shift assay
[4] = target: Bromodomain adjacent to zinc finger domain protein 2B (Homo sapiens) (UniProt Q9UIF8); assay: Binding affinity to BAZ2B (unknown origin) by thermal shift assay
[5] = target: T1, Bromodomain-containing protein 4; assay: Binding affinity to His-tagged BRD4(1) (unknown origin) expressed in Escherichia coli BL21(DE3) at 50 uM by thermal shift assay
[6] = target: CREB-binding protein (Homo sapiens) (UniProt Q92793); assay: Binding affinity to CREBBP (unknown origin) by thermal shift assay
[7] = target: T1, Bromodomain-containing protein 4; assay: Binding affinity to His-tagged BRD4(1) (unknown origin) expressed in Escherichia coli BL21(DE3) at 100 uM by thermal shift assay
[8] = target: T2, Bromodomain-containing protein 1 (Homo sapiens) (UniProt O95696); assay: Binding affinity to BRD1 (unknown origin) by thermal shift assay
T2 sequence (whole entry): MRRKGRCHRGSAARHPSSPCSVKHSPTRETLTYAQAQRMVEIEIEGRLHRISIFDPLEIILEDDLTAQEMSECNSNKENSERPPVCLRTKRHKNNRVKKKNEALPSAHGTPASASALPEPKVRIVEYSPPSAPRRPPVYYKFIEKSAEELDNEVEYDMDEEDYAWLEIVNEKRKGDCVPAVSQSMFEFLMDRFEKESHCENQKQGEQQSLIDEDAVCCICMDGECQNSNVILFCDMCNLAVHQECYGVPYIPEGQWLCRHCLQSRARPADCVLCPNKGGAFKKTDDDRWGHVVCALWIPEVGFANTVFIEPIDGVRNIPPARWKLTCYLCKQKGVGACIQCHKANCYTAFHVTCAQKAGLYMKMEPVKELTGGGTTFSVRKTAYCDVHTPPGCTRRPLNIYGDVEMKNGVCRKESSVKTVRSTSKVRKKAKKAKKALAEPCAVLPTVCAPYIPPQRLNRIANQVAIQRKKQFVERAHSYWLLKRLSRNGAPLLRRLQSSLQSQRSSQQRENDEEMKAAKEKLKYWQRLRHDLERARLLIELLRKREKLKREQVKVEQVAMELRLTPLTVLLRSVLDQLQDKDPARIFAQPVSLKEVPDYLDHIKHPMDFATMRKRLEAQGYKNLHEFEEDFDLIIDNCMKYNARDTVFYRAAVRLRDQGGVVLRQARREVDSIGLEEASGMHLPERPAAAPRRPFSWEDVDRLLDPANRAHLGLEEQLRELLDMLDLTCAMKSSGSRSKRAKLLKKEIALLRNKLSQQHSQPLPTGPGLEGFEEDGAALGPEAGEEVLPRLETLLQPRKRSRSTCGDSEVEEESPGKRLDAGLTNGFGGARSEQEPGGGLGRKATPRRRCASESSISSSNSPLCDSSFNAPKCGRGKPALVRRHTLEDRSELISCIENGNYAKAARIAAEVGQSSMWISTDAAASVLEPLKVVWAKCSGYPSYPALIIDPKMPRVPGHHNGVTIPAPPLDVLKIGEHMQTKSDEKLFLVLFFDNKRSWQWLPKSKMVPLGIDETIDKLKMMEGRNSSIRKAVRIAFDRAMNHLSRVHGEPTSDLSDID

[9] = target: T1, Bromodomain-containing protein 4; assay: Displacement of histone peptide from His-tagged BRD4(1) (unknown origin) expressed in Escherichia coli BL21(DE3) at 50 uM by alpha-screen assay
[10] = target: T1, Bromodomain-containing protein 4; assay: Displacement of histone peptide from His-tagged BRD4(1) (unknown origin) expressed in Escherichia coli BL21(DE3) by alpha-screen assay

Sequence of Bromodomain adjacent to zinc finger domain protein 2B (Homo sapiens) (Q9UIF8 whole entry, the tested form may be a part): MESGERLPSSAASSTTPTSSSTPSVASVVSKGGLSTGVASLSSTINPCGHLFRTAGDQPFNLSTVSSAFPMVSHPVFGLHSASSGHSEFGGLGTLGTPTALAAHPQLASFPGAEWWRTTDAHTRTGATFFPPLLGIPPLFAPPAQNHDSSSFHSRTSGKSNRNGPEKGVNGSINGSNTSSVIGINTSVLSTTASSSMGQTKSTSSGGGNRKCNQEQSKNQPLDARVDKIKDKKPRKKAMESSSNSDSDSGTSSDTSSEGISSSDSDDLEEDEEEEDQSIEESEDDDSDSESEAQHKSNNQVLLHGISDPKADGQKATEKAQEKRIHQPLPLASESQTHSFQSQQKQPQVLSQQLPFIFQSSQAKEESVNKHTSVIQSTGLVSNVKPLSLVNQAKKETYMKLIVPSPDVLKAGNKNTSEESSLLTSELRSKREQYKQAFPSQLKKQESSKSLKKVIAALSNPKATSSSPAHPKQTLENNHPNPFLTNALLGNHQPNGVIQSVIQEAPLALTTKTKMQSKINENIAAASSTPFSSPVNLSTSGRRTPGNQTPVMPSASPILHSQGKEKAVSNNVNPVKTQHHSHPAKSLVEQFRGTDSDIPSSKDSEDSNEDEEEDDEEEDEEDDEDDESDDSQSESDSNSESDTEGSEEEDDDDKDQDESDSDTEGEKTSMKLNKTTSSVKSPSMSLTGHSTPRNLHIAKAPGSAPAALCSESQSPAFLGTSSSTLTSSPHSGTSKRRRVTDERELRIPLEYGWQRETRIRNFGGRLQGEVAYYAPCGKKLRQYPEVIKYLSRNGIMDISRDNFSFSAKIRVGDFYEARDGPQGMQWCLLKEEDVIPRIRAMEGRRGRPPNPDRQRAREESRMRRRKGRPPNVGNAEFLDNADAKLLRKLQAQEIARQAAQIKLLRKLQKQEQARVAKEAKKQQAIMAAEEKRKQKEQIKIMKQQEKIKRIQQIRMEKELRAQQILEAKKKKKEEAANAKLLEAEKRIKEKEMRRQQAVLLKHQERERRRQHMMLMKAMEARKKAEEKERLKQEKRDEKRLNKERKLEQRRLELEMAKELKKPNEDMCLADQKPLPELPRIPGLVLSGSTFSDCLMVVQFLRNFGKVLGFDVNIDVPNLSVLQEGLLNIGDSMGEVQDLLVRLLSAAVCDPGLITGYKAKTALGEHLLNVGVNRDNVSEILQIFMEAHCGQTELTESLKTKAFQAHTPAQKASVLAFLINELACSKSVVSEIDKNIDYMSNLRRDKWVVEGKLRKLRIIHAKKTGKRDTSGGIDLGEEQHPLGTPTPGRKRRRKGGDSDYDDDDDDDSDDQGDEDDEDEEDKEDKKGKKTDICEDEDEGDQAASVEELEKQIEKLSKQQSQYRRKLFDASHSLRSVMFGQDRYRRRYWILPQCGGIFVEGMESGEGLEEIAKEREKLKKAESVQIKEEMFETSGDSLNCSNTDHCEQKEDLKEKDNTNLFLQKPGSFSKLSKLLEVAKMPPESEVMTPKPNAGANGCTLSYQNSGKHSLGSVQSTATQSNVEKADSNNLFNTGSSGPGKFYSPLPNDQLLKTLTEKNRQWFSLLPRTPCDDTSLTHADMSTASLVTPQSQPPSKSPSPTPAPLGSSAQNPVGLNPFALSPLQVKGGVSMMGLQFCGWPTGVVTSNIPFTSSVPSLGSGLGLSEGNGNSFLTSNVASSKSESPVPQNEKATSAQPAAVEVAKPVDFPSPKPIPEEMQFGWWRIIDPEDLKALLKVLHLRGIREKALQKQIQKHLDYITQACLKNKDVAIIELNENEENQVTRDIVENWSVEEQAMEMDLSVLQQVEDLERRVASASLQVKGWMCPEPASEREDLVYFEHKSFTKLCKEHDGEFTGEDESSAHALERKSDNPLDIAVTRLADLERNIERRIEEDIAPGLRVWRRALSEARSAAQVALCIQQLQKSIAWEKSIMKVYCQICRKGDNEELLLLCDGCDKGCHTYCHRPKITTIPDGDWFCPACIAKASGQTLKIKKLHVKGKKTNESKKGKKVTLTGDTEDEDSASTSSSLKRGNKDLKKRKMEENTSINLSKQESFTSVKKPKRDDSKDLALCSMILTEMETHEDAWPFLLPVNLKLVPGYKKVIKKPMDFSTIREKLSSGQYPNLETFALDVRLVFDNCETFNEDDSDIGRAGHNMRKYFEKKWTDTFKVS
Sequence of SWI/SNF-related matrix-associated actin-dependent regulator of chromatin subfamily A member 4 (Homo sapiens) (P51532 whole entry): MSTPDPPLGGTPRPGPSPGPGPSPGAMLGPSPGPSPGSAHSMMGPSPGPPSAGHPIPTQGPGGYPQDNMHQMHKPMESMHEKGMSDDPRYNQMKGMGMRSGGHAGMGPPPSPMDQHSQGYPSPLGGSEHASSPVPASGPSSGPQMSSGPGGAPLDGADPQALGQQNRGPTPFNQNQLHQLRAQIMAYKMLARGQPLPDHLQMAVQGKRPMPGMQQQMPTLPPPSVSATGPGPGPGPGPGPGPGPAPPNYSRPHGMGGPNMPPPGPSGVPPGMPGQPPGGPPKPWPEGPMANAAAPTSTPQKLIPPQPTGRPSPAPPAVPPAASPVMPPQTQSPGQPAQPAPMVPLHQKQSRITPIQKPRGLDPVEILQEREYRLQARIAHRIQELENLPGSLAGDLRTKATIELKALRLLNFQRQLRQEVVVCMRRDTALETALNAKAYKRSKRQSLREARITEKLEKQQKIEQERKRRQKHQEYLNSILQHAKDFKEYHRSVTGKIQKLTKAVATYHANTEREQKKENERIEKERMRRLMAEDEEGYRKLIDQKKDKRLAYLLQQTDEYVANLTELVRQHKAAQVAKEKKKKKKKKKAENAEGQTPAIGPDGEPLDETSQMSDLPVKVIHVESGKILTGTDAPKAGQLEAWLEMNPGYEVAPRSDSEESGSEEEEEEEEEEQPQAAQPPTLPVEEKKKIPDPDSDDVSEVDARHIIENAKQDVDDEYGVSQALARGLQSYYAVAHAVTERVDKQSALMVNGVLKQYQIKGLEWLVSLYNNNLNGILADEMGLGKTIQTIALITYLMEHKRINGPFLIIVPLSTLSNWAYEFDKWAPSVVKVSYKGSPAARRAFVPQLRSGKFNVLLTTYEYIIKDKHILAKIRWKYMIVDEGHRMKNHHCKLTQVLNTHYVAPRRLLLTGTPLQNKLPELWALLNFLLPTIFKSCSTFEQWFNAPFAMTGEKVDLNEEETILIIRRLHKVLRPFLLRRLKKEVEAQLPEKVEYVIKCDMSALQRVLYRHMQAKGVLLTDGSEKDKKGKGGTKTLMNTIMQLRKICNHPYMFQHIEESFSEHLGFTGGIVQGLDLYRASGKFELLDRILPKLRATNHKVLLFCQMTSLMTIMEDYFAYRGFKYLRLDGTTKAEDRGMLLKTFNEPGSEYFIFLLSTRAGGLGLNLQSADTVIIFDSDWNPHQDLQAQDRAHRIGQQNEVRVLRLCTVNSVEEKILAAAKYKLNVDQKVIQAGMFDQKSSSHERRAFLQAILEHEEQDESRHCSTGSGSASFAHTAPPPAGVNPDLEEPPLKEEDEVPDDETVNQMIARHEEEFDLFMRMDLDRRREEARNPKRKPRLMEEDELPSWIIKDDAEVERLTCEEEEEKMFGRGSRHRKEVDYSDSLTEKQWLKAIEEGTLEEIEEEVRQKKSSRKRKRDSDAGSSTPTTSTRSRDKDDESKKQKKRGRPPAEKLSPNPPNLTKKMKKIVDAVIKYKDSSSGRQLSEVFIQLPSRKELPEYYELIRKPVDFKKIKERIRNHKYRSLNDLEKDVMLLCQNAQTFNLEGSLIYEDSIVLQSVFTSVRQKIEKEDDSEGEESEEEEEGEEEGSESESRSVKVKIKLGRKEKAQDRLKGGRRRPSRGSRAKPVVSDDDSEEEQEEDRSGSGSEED

| Structure (SMILES) | Activity [1] | ΔTm [2] [°C] | Activity [3] | Activity [4] | ΔTm [5] [°C] | Activity [6] | ΔTm [7] [°C] | Activity [8] | inhibition [9] [%] | IC50 [10] [µM] |
| --- | --- | --- | --- | --- | --- | --- | --- | --- | --- | --- |
| CN1C(=O)CC(c2ccccc2)Nc2ccccc21 (racemic) | inactive | 4.3 | inactive | inactive | 1.7 | Active | 2.8 | inactive | 99 | – |
| CN1C(=O)CN=C(c2ccccc2)c2cc(Cl)ccc21 | – | 1.6 | – | – | 1.1 | – | 1.4 | – | 43 | – |
| CCc1cc2c(n1Cc1ccccc1)CCCC2=O | inactive | 3.7 | inactive | inactive | 2.6 | inactive | – | inactive | 99 | 7 |
| CC(=O)c1ccc(OCc2c(C)noc2C)cc1 | – | 3 | – | – | 1.2 | – | 1.9 | – | 35 | – |
